Data published in patent publication US8187826B2, “Quantitative analysis of in vivo mutation at the Pig-A locus” (Litron Laboratories, Ltd., priority 2008, dated 2012).

Tests used:
reticulocytes [1] = assay: frequency of reticulocytes (% RET) in peripheral blood, flow cytometry, mice; type: in vivo; settings: male CD-1 mice, 40 mg/kg/day oral gavage Days 1-3, FIG. 8A
Description: (§1) The cross-species potential of this assay is illustrated by this example, whereby male CD-1 mice were treated on three consecutive days (Day 1, 2 and 3) with N-ethyl-N-nitrosourea (ENU) via oral gavage. The dose levels were 0 or 40 mg/kg/day. Blood harvests occurred on Days 4, 15, 30, 45 and 90 (n=5 per time point per dose). Whereas the rat experiments described in Examples 2-4 above were based on serial blood draws, the mouse experiments were not. Rather, each mouse provided only one blood specimen, thereby requiring like-treated groups of animals to generate the data for each time point studied. This was done to eliminate the possible confounding effect that repeat-blood sampling may have had on the results given the low total blood volume associated with this particular small animal model.

[2] = test system: GPI anchor-deficient RBCs (Pig-A locus); assay: Pig-A mutation assay: frequency of GPI anchor-deficient (mutant phenotype) RBCs, rats; type: in vivo, Wistar rats
From the text: (§2) These in vivo experiments utilized naïve rats and focused on the development of simple and reproducible methods for staining and analyzing peripheral blood RBCs and RETs for the GPI anchor-deficient phenotype. As reported elsewhere, it was confirmed that the GPI-anchored protein CD59 is highly and stably expressed on RBCs throughout their lifespan in circulation (Hernández-Campo et al., “Quantitative Analysis of the Expression of Glycosylphosphatidylinositol-Anchored Proteins During the Maturation of Different Hematopoietic Cell Compartments of Normal Bone Marrow,” Cytometry 72B:34-42 (2007), which is hereby incorporated by reference in its entirety). […] A second fluorescent reagent, SYTO® 13 dye, was chosen to differentially stain NCEs, RETs, and leukocytes. […] Secondly, it provided better fluorescent resolution between NCEs, RETs and blood leukocytes. The separation of these latter two populations is particularly important, because not all leukocytes express CD59, and these cells can therefore be mistaken for GPI anchor-deficient RBCs if they are not excluded from analysis. Early staining trials also included a third fluorescent reagent, anti-platelet antibody (biotinylated anti-CD61 plus streptavidin-Cy5-PE), which was added to positively identify platelets and prevent platelets from interfering with the RBC-centric analyses.
(§3) The prior three-color staining strategy outlined above has been described in Bryce et al., “In vivo mutation assay based on the endogenous Pig-a locus”, Environ. Molec. Mutagen. 49:256-264 (2008) as well as U.S. Patent Application Publ. […] Samples processed in this manner were evaluated with and without the anti-platelet antibody, and virtually identical values were consistently obtained. […]
(§4) The thresholding technique is based on the fact that the vast majority of Lympholyte® processed blood cells are mature RBCs. […] In this case, it is possible to set the threshold parameter to the nucleic acid dye-associated fluorescence channel (i.e., FL1 for SYTO® 13), as opposed to the more common forward scatter trigger. […]

reticulocytes [3] = assay: frequency of reticulocytes (% RET) in peripheral blood, flow cytometry, rats; type: in vivo; settings: male Wistar rats, FIG. 5A
From the text: These in vivo experiments utilized naïve rats and focused on the development of simple and reproducible methods for staining and analyzing peripheral blood RBCs and RETs for the GPI anchor-deficient phenotype. As reported elsewhere, it was confirmed that the GPI-anchored protein CD59 is highly and stably expressed on RBCs throughout their lifespan in circulation (Hernández-Campo et al., “Quantitative Analysis of the Expression of Glycosylphosphatidylinositol-Anchored Proteins During the Maturation of Different Hematopoietic Cell Compartments of Normal Bone Marrow,” Cytometry 72B:34-42 (2007), which is hereby incorporated by reference in its entirety). […] A second fluorescent reagent, SYTO® 13 dye, was chosen to differentially stain NCEs, RETs, and leukocytes. […] Secondly, it provided better fluorescent resolution between NCEs, RETs and blood leukocytes. The separation of these latter two populations is particularly important, because not all leukocytes express CD59, and these cells can therefore be mistaken for GPI anchor-deficient RBCs if they are not excluded from analysis. […]
The prior three-color staining strategy outlined above has been described in Bryce et al., “In vivo mutation assay based on the endogenous Pig-a locus”, Environ. […] Samples processed in this manner were evaluated with and without the anti-platelet antibody, and virtually identical values were consistently obtained. […]

[4] = test system: GPI anchor-deficient RETs (Pig-A locus); assay: Pig-A mutation assay: frequency of GPI anchor-deficient (mutant phenotype) RETs, rats; type: in vivo, Wistar rats
From the text: as §2, §3, §4

[5] = test system: GPI anchor-deficient RETs (Pig-A locus); assay: Pig-A mutation assay: frequency of mutant phenotype RETs, mice; type: in vivo; settings: male CD-1 mice, 40 mg/kg/day oral gavage Days 1-3, FIG. 8C
Description: as §1

[6] = test system: GPI anchor-deficient RBCs (Pig-A locus); assay: Pig-A mutation assay: frequency of mutant phenotype RBCs, mice; type: in vivo; settings: male CD-1 mice, 40 mg/kg/day oral gavage Days 1-3, FIG. 8B
Description: as §1

In the case of CCN(N=O)C(N)=O [ENU, N-ethyl-N-nitrosourea], the “frequency of reticulocytes (% RET)” value (reticulocytes [1]; Day 4) is reported as “significantly reduced”, the “frequency of reticulocytes (% RET), rebound effect” value (reticulocytes [1]; Day 15, vs control values) is reported as ““overshoots” the control values” and the “frequency of mutant phenotype RBCs” value ([2]; male Wistar rats, 1, 5, 10 or 15 mg/kg/day oral gavage on 14 consecutive days, blood Day 23, FIG. 7A) is reported as “very robust, dose-related increase in mutant cells”. For the same compound, the “frequency of mutant phenotype (GPI anchor-deficient) RBCs” value ([2]; male Wistar rats, 20 or 40 mg/kg/day oral gavage Days 1-3, Day 15 through Day 90, FIG. 5B) was “Robust, dose-related increases in mutant cell frequency”, the “day on which maximal mutant RBC frequency is reached” value ([2]; male Wistar rats, 20 or 40 mg/kg/day oral gavage Days 1-3, plateau thereafter, FIG. 5B) was ≤ 45 days and the “frequency of reticulocytes (% RET)” value (reticulocytes [3]; 20 or 40 mg/kg/day oral gavage Days 1-3, vs vehicle control) was “mean % RET are reduced in a dose-dependent manner”. For the same compound, the “frequency of reticulocytes (% RET), rebound effect” value (reticulocytes [3]; high dose group (40 mg/kg/day oral gavage Days 1-3), vs control values) was ““overshoots” the control values”, the “frequency of mutant phenotype RETs” value ([4]; male Wistar rats, 1, 5, 10 or 15 mg/kg/day oral gavage on 14 consecutive days, blood Day 23, FIG. 7B) was “very robust, dose-related increase in mutant cells” and the “day on which maximal or near-maximal mutant RET frequency is reached” value ([4]; male Wistar rats, 20 or 40 mg/kg/day oral gavage Days 1-3, FIG. 5C) was 15 days. For the same compound, the “frequency of mutant phenotype (GPI anchor-deficient) RETs” value ([4]; male Wistar rats, 20 or 40 mg/kg/day oral gavage Days 1-3, evident by Day 15, FIG. 5C) was “Robust, dose-related increases in mutant cell frequency”, the “frequency of mutant phenotype RETs” value ([5]; Day 15) was “greatly elevated” and the “frequency of mutant phenotype RETs” value ([5]; through Day 90) was “Robust increases in mutant cell frequency”. The “frequency of mutant phenotype RBCs” value ([6]; by Day 15) was “increased mutant cell frequencies” and the “day on which maximum mutant RBC frequency is apparent” value ([6]; stable thereafter through Day 90) was 30 days.
